Tests used:
Assay in all cases: Experiment on weeding effect in post-emergence stage
Type in all cases: in vivo
Conditions in all cases: dose 15 g a.i./ha, fresh weight control rate level
Abutilon theophrasti = test system: Abutilon theophrasti
Description: (§1) Experiment on weeding effect in post-emergence stage:
(§2) Monocotyledonous and dicotyledonous weed seeds (Descurainia sophia, Capsella bursa-pastoris, Abutilon theophrasti, Galium aparine, Stellaria media, Lithospermum arvense, Rorippa indica, Alopecurus aequalis, Alopecurus japonicus, Beckmannia syzigachne, Sclerochloa dura, Conyza Canadensis, Phleum paniculatum, Veronica didyma Tenore, Eleusine indica, Bromus japonicus, Aegilops tauschii, Phalaris arundinacea, Amaranthus retroflexus, Chenopodium album, Commelina communis, Sonchus arvensis, Convolvulus arvensis, Cirsium setosum, Solanum nigrum, Acalypha australis, Digitaria sanguinalis, Echinochloa crusgalli, Setaria viridis, Setaria glauca, Leptochloa chinensis, Monochoria vaginalis, Sagittaria trolia, Scirpus juncoides, Cyperus rotundus, Cyperus iria, Cyperus difformis, Elmbristylis, Portulaca oleracea, Xanthium sibiricum, Pharbitis nil) and major crop seeds (wheat, corn, rice, soybean, cotton, oilseed rape, millet, sorghum, potato, sesame, ricinus) were placed in plastic pots filled with soil, then covered with 0.5-2 cm of soil, allowed to grow in a good greenhouse environment. After 2 weeks of sowing, the test plants were treated in the 2-3 leaf stage. The tested compounds of the present invention were respectively dissolved in acetone, then added with Tween 80 and 1.5 liter/ha of emulsifiable concentrate of methyl oleate as synergist, diluted with a certain amount of water to obtain a solution with a certain concentration, and sprayed with a spray tower onto the plants. After the application, the plants were cultured for 3 weeks in the greenhouse, and then the experimental results of the weeding were counted. The doses of the used compounds were 500, 250, 125, 60, 15 g a.i./ha, and the averages were obtained by repeating for three times.

Amaranthus retroflexus = test system: Amaranthus retroflexus
Description: as §1, §2

Digitaria sanguinalis = test system: Digitaria sanguinalis
Description: as §1, §2

Echinochloa crusgalli = test system: Echinochloa crusgalli
Description: as §1, §2

Eleusine indica = test system: Eleusine indica
Description: as §1, §2

Galium aparine = test system: Galium aparine
Description: as §1, §2

Leptochloa chinensis = test system: Leptochloa chinensis
Description: as §1, §2

Setaria viridis = test system: Setaria viridis
Description: as §1, §2

Veronica didyma Tenore = test system: Veronica didyma Tenore
Description: as §1, §2

Row | Structure (SMILES) | weeding effect in post-emergence stage, Abutilon theophrasti (level) (Abutilon theophrasti) | weeding effect in post-emergence stage, Amaranthus retroflexus (level) (Amaranthus retroflexus) | weeding effect in post-emergence stage, Digitaria sanguinalis (level) (Digitaria sanguinalis) | weeding effect in post-emergence stage, Echinochloa crusgalli (level) (Echinochloa crusgalli) | weeding effect in post-emergence stage, Eleusine indica (level) (Eleusine indica) | weeding effect in post-emergence stage, Galium aparine (level) (Galium aparine) | weeding effect in post-emergence stage, Leptochloa chinensis (level) (Leptochloa chinensis) | weeding effect in post-emergence stage, Setaria viridis (level) (Setaria viridis) | weeding effect in post-emergence stage, Veronica didyma Tenore (level) (Veronica didyma Tenore)
1 | C/C(=N\OC(=O)C1(C)CC(c2cc(-n3c(=O)n(C)c(=S)n(C)c3=S)c(F)cc2Cl)=NO1)C(C)C (stereo not drawn) [Compound 58] | 5 (Level 5: growth control rate is above 85%) | 5 (Level 5: growth control rate is above 85%) | 5 (Level 5: growth control rate is above 85%) | 5 (Level 5: growth control rate is above 85%) | 5 (Level 5: growth control rate is above 85%) | 5 (Level 5: growth control rate is above 85%) | 5 (Level 5: growth control rate is above 85%) | 5 (Level 5: growth control rate is above 85%) | 5 (Level 5: growth control rate is above 85%)
2 | C/C(=N\OC(=O)C1(C)CC(c2cc(-n3c(=O)n(C)c(=S)n(C)c3=S)c(F)cc2Cl)=NO1)C(C)(C)C (stereo not drawn) [Compound 59] | 5 (Level 5: growth control rate is above 85%) | 5 (Level 5: growth control rate is above 85%) | 5 (Level 5: growth control rate is above 85%) | 5 (Level 5: growth control rate is above 85%) | 5 (Level 5: growth control rate is above 85%) | 5 (Level 5: growth control rate is above 85%) | 5 (Level 5: growth control rate is above 85%) | 5 (Level 5: growth control rate is above 85%) | 5 (Level 5: growth control rate is above 85%)
3 | CCC(CC)=NOC(=O)C1(C)CC(c2cc(-n3c(=O)n(C)c(=S)n(C)c3=S)c(F)cc2Cl)=NO1 (stereo not drawn) [Compound 60] | 5 (Level 5: growth control rate is above 85%) | 5 (Level 5: growth control rate is above 85%) | 5 (Level 5: growth control rate is above 85%) | 5 (Level 5: growth control rate is above 85%) | 5 (Level 5: growth control rate is above 85%) | 5 (Level 5: growth control rate is above 85%) | 5 (Level 5: growth control rate is above 85%) | 5 (Level 5: growth control rate is above 85%) | 5 (Level 5: growth control rate is above 85%)
4 | C/C(=N\OC(=O)C1(C)CC(c2cc(-n3c(=O)n(C)c(=S)n(C)c3=S)c(F)cc2Cl)=NO1)C1CC1 (stereo not drawn) [Compound 61] | 5 (Level 5: growth control rate is above 85%) | 5 (Level 5: growth control rate is above 85%) | 5 (Level 5: growth control rate is above 85%) | 5 (Level 5: growth control rate is above 85%) | 5 (Level 5: growth control rate is above 85%) | 5 (Level 5: growth control rate is above 85%) | 5 (Level 5: growth control rate is above 85%) | 5 (Level 5: growth control rate is above 85%) | 5 (Level 5: growth control rate is above 85%)
5 | CCO/C(C)=N/OC(=O)C1(C)CC(c2cc(-n3c(=O)n(C)c(=S)n(C)c3=S)c(F)cc2Cl)=NO1 (stereo not drawn) [Compound 67] | 5 (Level 5: growth control rate is above 85%) | 5 (Level 5: growth control rate is above 85%) | 5 (Level 5: growth control rate is above 85%) | 5 (Level 5: growth control rate is above 85%) | 5 (Level 5: growth control rate is above 85%) | 5 (Level 5: growth control rate is above 85%) | 5 (Level 5: growth control rate is above 85%) | 5 (Level 5: growth control rate is above 85%) | 5 (Level 5: growth control rate is above 85%)
6 | COC/C(C)=N/OC(=O)C1(C)CC(c2cc(-n3c(=O)n(C)c(=S)n(C)c3=S)c(F)cc2Cl)=NO1 (stereo not drawn) [Compound 68] | 5 (Level 5: growth control rate is above 85%) | 5 (Level 5: growth control rate is above 85%) | 5 (Level 5: growth control rate is above 85%) | 5 (Level 5: growth control rate is above 85%) | 5 (Level 5: growth control rate is above 85%) | 5 (Level 5: growth control rate is above 85%) | 5 (Level 5: growth control rate is above 85%) | 5 (Level 5: growth control rate is above 85%) | 5 (Level 5: growth control rate is above 85%)
7 | Cn1c(=S)n(C)c(=S)n(-c2cc(C3=NOC(C)(C(=O)O/N=C/c4ccccc4)C3)c(Cl)cc2F)c1=O (stereo not drawn) [Compound 69] | 5 (Level 5: growth control rate is above 85%) | 5 (Level 5: growth control rate is above 85%) | 5 (Level 5: growth control rate is above 85%) | 5 (Level 5: growth control rate is above 85%) | 5 (Level 5: growth control rate is above 85%) | 5 (Level 5: growth control rate is above 85%) | 5 (Level 5: growth control rate is above 85%) | 5 (Level 5: growth control rate is above 85%) | 5 (Level 5: growth control rate is above 85%)
8 | C/C(=N\OC(=O)C1(C)CC(c2cc(-n3c(=O)n(C)c(=S)n(C)c3=S)c(F)cc2Cl)=NO1)c1ccccc1 (stereo not drawn) [Compound 70] | 5 (Level 5: growth control rate is above 85%) | 5 (Level 5: growth control rate is above 85%) | 5 (Level 5: growth control rate is above 85%) | 5 (Level 5: growth control rate is above 85%) | 5 (Level 5: growth control rate is above 85%) | 5 (Level 5: growth control rate is above 85%) | 5 (Level 5: growth control rate is above 85%) | 5 (Level 5: growth control rate is above 85%) | 5 (Level 5: growth control rate is above 85%)

Reference: patent US20230072860A1, “ISOXAZOLINE OXIME FORMATE COMPOUND, PREPARATION METHOD THEREFOR, HERBICIDAL COMPOSITION AND USE THEREOF” (QINGDAO KINGAGROOT CHEMICAL COMPOUND CO., LTD., priority 2020, published 2023)
